Test in all cases: NCI anticancer screen, dose series, 48 h
Assay [1] concerns RPMI-8226 leukemia.
Assay [2] deals with SF-539 CNS.
Assay [3] concerns SR leukemia.
In assay [4] the test system is SW-620 colon.
Assay [5] deals with OVCAR-4 ovarian.
Assay [6] has as its system CAKI-1 renal.
Assay [7] concerns SN12C renal.
The test system of assay [8] is ACHN renal.
The subject of assay [9] is T-47D breast.
Assay [10] deals with HS 578T breast.

The structures appear in SMILES notation.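 These data come from cells grown in 96-well plates and exposed to compound for 48 hours at five concentrations. GI50 marks 50% less growth. Definition used: TGI = concentration required for complete inhibition of growth.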 Where only a bound is given, the exact number is not on record here.

From PubChem BioAssay (NCI) come the findings set out here.

For the compound `Oc1ccc2ccccc2c1N=Nc1nccs1`, the GI50 is 0.187 µM in assay [1]; 2.33 µM in assay [2]; 0.111 µM in assay [3]; 0.396 µM in assay [4]; 0.457 µM in assay [5]; 0.323 µM in [6]. In addition, the GI50 was 1.77 µM in assay [7], 0.27 µM in assay [8], 1.71 µM in [9] and 4.55 µM in [10]. For the same compound, the TGI was determined as 13.2 µM in assay [2]; 19.5 µM in assay [4]; 16.8 µM in assay [5]; 11.6 µM in assay [6]; 44 µM in assay [7]; 14 µM in assay [8]. Further, the values for the TGI in [9] and in assay [10] were 12.6 µM and 45.2 µM, respectively.

As for `OCc1c[nH]c2ccccc12`, the GI50 in assay [1] was 20.6 µM; in [2], 19.3 µM; in [3] it was 30.2 µM; in assay [4], 17.9 µM; in assay [5], 33 µM; in [6] it was 15.8 µM. In addition, the GI50 was 18.9 µM in assay [7], 24.4 µM in assay [8], 16 µM in assay [9] and 33.9 µM in assay [10]. Further, the TGI in assay [1] is 64.2 µM; in [2] it was 46.1 µM; in [3], 77.4 µM; in assay [4], 36.8 µM; in assay [5], > 100 µM; in [6], 52.8 µM. Further, the TGI is 39.7 µM in assay [7], 86.4 µM in assay [8], > 100 µM in assay [9] and > 100 µM in assay [10].

For `N#Cc1ccc(O)c(C2=NCC(c3cccc(Oc4ccccc4)c3)O2)c1` (stereo unspecified), the GI50 was 0.715 µM in assay [1]; 1.83 µM in assay [2]; 0.933 µM in assay [3]; 0.508 µM in assay [4]; 0.519 µM in assay [5]; 0.392 µM in assay [6]. Besides, the GI50 in assay [7] was 1.21 µM; in assay [8], 0.615 µM; in [9], 0.817 µM; in [10], 3.03 µM. The TGI was > 100 µM in [1]; 9.27 µM in [2]; > 100 µM in [3]; 22.8 µM in assay [4]; > 100 µM in [5]; 37.9 µM in assay [6]. Besides, the TGI is 89.5 µM in assay [7], 14.3 µM in assay [8], 59.6 µM in assay [9] and > 100 µM in assay [10].

In the case of `COc1ccc(-c2cc(=O)c3c(OC)c(OC)c(OC)cc3o2)cc1`, the TGI in [1], in assay [2], in assay [3], in assay [4], in assay [5] and in assay [6] was > 100 µM in each case. Also, the TGI in assay [7] was 91.1 µM; in assay [8], > 100 µM; in assay [9], 62.4 µM; in assay [10], > 100 µM.

Consider `CC/C(=C(/c1ccc(O)cc1)c1ccc(OCCNC)cc1)c1ccccc1`, for which the GI50 in assay [1] is 2.05 µM; in assay [2], 1.7 µM; in [3], 2.09 µM; in assay [4] it was 1.72 µM; in assay [5] it was 3.32 µM; in assay [6], 2.75 µM. For the same compound, the GI50 was 2.19 µM in assay [7], 2.64 µM in assay [8], 1.34 µM in [9] and 1.87 µM in [10]. For the same compound, the TGI in assay [1] is 4.64 µM; in assay [2], 3.22 µM; in assay [3], 5.46 µM; in [4] it was 3.26 µM; in [5], 15.4 µM; in assay [6], 8.58 µM. Moreover, the TGI in [7] turned out to be 5.78 µM; in [8], 7.52 µM; in assay [9] it was 4.68 µM; in assay [10], 5.16 µM.

As for `COc1cc(C2=NOC(c3cc(OC)c(OC)c(OC)c3)C2)ccc1OCCCCOc1cc2c(cc1OC)C(=O)N1CCC[C@H]1C=N2` (stereo partly specified), the GI50 was 0.271 µM in [1]; 0.277 µM in assay [2]; 0.279 µM in assay [3]; 0.246 µM in [4]; 0.439 µM in [5]; 0.245 µM in assay [6]. Further, the GI50 is 0.358 µM in assay [7], 0.243 µM in assay [8], 0.481 µM in assay [9] and 0.234 µM in assay [10]. Besides, the TGI in [1] worked out at 0.682 µM; in assay [2], 0.894 µM; in assay [4], 0.855 µM; in assay [5], 8.64 µM; in assay [6], 0.631 µM; in [7], 3.51 µM. The values for the TGI in [8] and in [10] were 0.523 µM and 0.681 µM, respectively.

With `C=CC(=O)N1CC2(CCN(c3nc(OC4CCN(CCCOC)CC4)nc4c(OCC(F)(F)F)c(-c5c(C)ccc6[nH]ncc56)c(C5CC5)cc34)CC2)C1`, the GI50 was 2.14 µM in assay [1]; 1.65 µM in assay [2]; 1.75 µM in assay [3]; 1.82 µM in [4]; 4.54 µM in assay [5]; 4.15 µM in assay [6]. Besides, the GI50 in [7] is 2.36 µM; in assay [8], 2.11 µM; in [9] it was 2.71 µM; in assay [10], 2.91 µM. Further, the TGI in [1] stood at 5.81 µM; in assay [2], 3.07 µM; in [3], 4.77 µM; in assay [4], 3.59 µM; in [5] it was 18.5 µM; in assay [6], 15.2 µM. Also, the TGI is 5.86 µM in assay [7], 4.44 µM in assay [8], 9.46 µM in assay [9] and 13.3 µM in assay [10].

As to `CCN(CC)c1ccc(/C=C/c2ccc3cc(C)ccc3[n+]2CC)cc1`, the GI50 is 0.029 µM in [1]; 0.172 µM in assay [2]; 0.09 µM in assay [3]; 0.229 µM in assay [4]; 0.0468 µM in assay [5]; 2.03 µM in assay [6]. Also, the GI50 was 0.124 µM in [7], 0.336 µM in assay [8], 0.0182 µM in assay [9] and 1.01 µM in assay [10]. Besides, the TGI in assay [1] amounted to 3.66 µM; in [2], 10.9 µM; in assay [3], 2.28 µM; in assay [4], 15.6 µM; in [5], 12.1 µM; in assay [6], 12 µM. Further, the TGI was determined as 1.2 µM in assay [7], 5.67 µM in assay [8], 1.41 µM in [9] and 69 µM in assay [10].
